From the NIST ThermoML archive (doi:10.1021/je7003148)

Assay: cn = amount concentration of the nth substance listed, in mol/dm3
Conditions: 298 K; for surface tension liquid-gas: Ring tensiometer; for kinematic viscosity / speed of sound / mass density: 101.33 kPa, Liquid; for kinematic viscosity: Capillary tube (Ostwald / Ubbelohde) method; for speed of sound: Sing-around technique in a fixed-path interferometer

CCCCCCCCCCCCCCCCCC[N+](C)(C)C.[Br-] [N,N,N-trimethyl-1-octadecanaminium bromide] + O
Conditions | kinematic viscosity [m2/s] | mass density [kg/m3] | speed of sound [m/s] | surface tension liquid-gas [mN/m]
c1 = 0.001 | 8.957e-07 | 997.053 | 1497.2 | 62.3
c1 = 0.002 | 8.958e-07 | 997.053 | 1497.7 | 54.2
c1 = 0.003 | 8.958e-07 | 997.053 | 1498 | 48.7
c1 = 0.004 | 8.958e-07 | 997.053 | 1498.2 | 45
c1 = 0.005 | 8.959e-07 | 997.053 | 1498 | 42.8
c1 = 0.006 | 8.959e-07 | 997.054 | 1497.8 | 42
c1 = 0.008 | 8.96e-07 | 997.054 | 1497.2 | 41.4
c1 = 0.01 | 8.96e-07 | 997.054 | 1496.7 | 41.3
c1 = 0.013 | 8.961e-07 | 997.054 | 1496 | 41
c1 = 0.016 | 8.962e-07 | 997.054 | 1495.2 | 40.8
c1 = 0.02 | 8.963e-07 | 997.055 | 1494.2 | 40.4
c1 = 0.025 | 8.965e-07 | 997.055 | 1492.7 | 40.2
c1 = 0.03 | 8.966e-07 | 997.056 | 1491.6 | 39.6
c1 = 0.04 | 8.969e-07 | 997.057 | 1489.2 | 39.3

CCCCCCCCCCCCCC[N+](C)(C)C.[Br-] [tetradecyltrimethylammonium bromide] + O
Conditions | kinematic viscosity [m2/s] | mass density [kg/m3] | speed of sound [m/s] | surface tension liquid-gas [mN/m]
c1 = 0.001 | 8.962e-07 | 997.062 | 1496.9 | 60.4
c1 = 0.002 | 8.968e-07 | 997.064 | 1497.2 | 51.7
c1 = 0.003 | 8.991e-07 | 997.087 | 1497.3 | 44
c1 = 0.005 | 9.015e-07 | 997.106 | 1497.4 | 40.6
c1 = 0.01 | 9.078e-07 | 997.153 | 1497.5 | 38
c1 = 0.015 | 9.144e-07 | 997.204 | 1497.6 | 37.8
c1 = 0.02 | 9.215e-07 | 997.268 | 1497.7 | 37.6
c1 = 0.025 | 9.29e-07 | 997.307 | 1497.8 | 37.4
c1 = 0.03 | 9.368e-07 | 997.349 | 1497.8 | 37.1
c1 = 0.035 | 9.45e-07 | 997.402 | 1497.9 | 37
c1 = 0.04 | 9.537e-07 | 997.458 | 1497.9 | 36.9
c1 = 0.045 | 9.627e-07 | 997.5 | 1498 | 36.8
c1 = 0.05 | 9.722e-07 | 997.545 | 1498.1 | 36.7
c1 = 0.055 | 9.82e-07 | 997.604 | 1498.1 | 36.7

O [water] + CCCCCCCCCCCCCCCCCC[N+](C)(C)C.[Br-]
c2 = 0
Conditions | kinematic viscosity [m2/s] | surface tension liquid-gas [mN/m]
– | 8.957e-07 | 72.5

O [water] + CCCCCCCCCCCCCC[N+](C)(C)C.[Br-]
c2 = 0
Conditions | kinematic viscosity [m2/s] | surface tension liquid-gas [mN/m]
– | 8.957e-07 | 72.5
